In patent US11072635B2, “Macrocyclic broad spectrum antibiotics” (priority 2015, dated 2021):
Converted amounts (≈) assume the structure as drawn. Like-named read-outs stand apart in the source and are kept apart here.

Tests used:
Type in all cases: cell-based
[1] = tested on: Escherichia coli MC4100 harboring the IMP4213 (E. coli IMP); assay: microbe, parasite or virus in culture; settings: 22 h, read-out: MIC (μg/mL) E. coli IMP
Description: (§1) In vitro antimicrobial activity of each compound was determined by measuring minimal inhibitor concentrations (MICs) using the broth micro-dilution technique as approved by the Clinical and Laboratory Standards Institute (CLSI) (Methods for Dilution Antimicrobial Susceptibility Tests for Bacteria that Grow Aerobically; Approved Standard—Eighth Edition. CLSI document M07-A8. Wayne, Pa.: Clinical and Laboratory Standards; 2009). Antibacterial activity was measure against three strains of bacteria: a Methicillin Resistant Staphylococcus aureus strain USA 300, NRS384 (S. aureus); a strain of Escherichia coli MC4100 harboring the IMP4213 (E. coli IMP), which results in increased outer-membrane permeability (B Martin and Silhavy T. Imp/OstA is required for cell envelope biogenesis in Escherichia coli. (2002) Molecular Microbiology, 45(5), 1289-1302), and Escherichia coli ATCC 25922 (E. coli), a clinically relevant Gram-negative strain. Cells were inoculated onto plates of Trypyticase Soy Agar or Luria Agar respectively and grown at 35° C. for 20 hours. Inocula suspensions were prepared by scraping cells into 1 mL of testing media (cation adjusted Mueller Hinton Broth supplemented with 0.002% v/v Tween-80) and diluting to a final OD600 nm of 0.01.
(§2) Test compounds were prepared in DMSO at a concentration of 10 mg/mL. […] In protocol 2, the compound stocks were diluted into testing media at a concentration of 4 μg/mL and serial 2-fold dilutions were made in the same media, in 96-well U bottom microtiter dishes, for a total of 10 compound concentrations. In protocol 3, compound stocks were diluted into testing media at a concentration of 0.5 μg/mL, with serial 2-fold dilutions conducted as described above. […] Inocula suspensions were added to the 2-fold serial dilutions of test compounds to a final density of OD OD600 nm of 0.0005 and incubated at 35° C. for 22 hours.

[2] = tested on: Escherichia coli ATCC 25922 (E. coli); assay: Minimum inhibitory concentration, broth micro-dilution (CLSI); settings: read-out: MIC (μg/mL) E. coli
Description: Cells were inoculated onto plates of Trypyticase Soy Agar or Luria Agar respectively and grown at 35° C. for 20 hours. Inocula suspensions were prepared by scraping cells into 1 mL of testing media (cation adjusted Mueller Hinton Broth supplemented with 0.002% v/v Tween-80) and diluting to a final OD600 nm of 0.01.
as §2

[3] = tested on: Methicillin Resistant Staphylococcus aureus strain USA 300, NRS384 (S. aureus); assay: as above
Description: as §1, §2

[4] = MRSA / NRS 384 / USA300, 22 h, read-out: MIC (μg/mL) S. aureus
[5] = ATCC25922, E. coli ATCC 25922, 35° C., 22 hours
[6] = MRSA / NRS 384 / USA300, MRSA USA 300, NRS384, 35° C., 22 hours, cation adjusted Mueller Hinton Broth with 0.002% Tween-80, read-out: MIC (μg/mL) S. aureus

CCCCc1ccc(-c2ccc(C(=O)N[C@@H](CN)C(=O)N(C)[C@@H]3C(=O)N[C@@H](C)C(=O)N[C@H](C(=O)NC(C)=O)Cc4ccc(OCCN)c(c4)-c4cc3ccc4OCCN)cc2)cc1 [Compound 122]
MIC [1]: 0.094 µg/mL (≈ 0.109 µM)
MIC ([2]; ATCC25922, 22 h): 3 µg/mL (≈ 3.48 µM)
MIC [3, 4]: 1.5 µg/mL (≈ 1.74 µM)

C=C(C#N)NC(=O)[C@@H]1Cc2ccc(OCCN)c(c2)-c2cc(ccc2OCCN)[C@H](N(C)C(=O)[C@H](CCCN)NC(=O)c2ccc(-c3ccc(CCCC)cc3)cc2)C(=O)N[C@@H](C)C(=O)N1 [Compound 130]
MIC [1]: 0.13 µg/mL (≈ 0.144 µM)
MIC ([2]; ATCC25922, 22 h): 6 µg/mL (≈ 6.67 µM)
MIC [3, 4]: 0.38 µg/mL (≈ 0.422 µM)

CCCCc1ccc(-c2ccc(C(=O)N[C@@H](CN)C(=O)N(C)[C@@H]3C(=O)N[C@@H](C)C(=O)N[C@H](c4nsc(=O)[nH]4)Cc4ccc(OCCN)c(c4)-c4cc3ccc4OCCN)cc2)cc1 [Compound 132]
MIC [1]: 0.25 µg/mL (≈ 0.285 µM)
MIC ([2]; ATCC25922, 22 h): 8 µg/mL (≈ 9.11 µM)
MIC [3, 4]: 4 µg/mL (≈ 4.56 µM)

CCCCc1ccc(-c2ccc(C(=O)N[C@@H](CCCN)C(=O)N(C)[C@@H]3C(=O)N[C@@H](C)C(=O)N[C@H](c4nccc(=O)[nH]4)Cc4ccc(OCCN)c(c4)-c4cc3ccc4OCCN)cc2)cc1 [Compound 135]
MIC [1]: 1.5 µg/mL (≈ 1.67 µM)
MIC ([2]; ATCC25922, 22 h): 32 µg/mL (≈ 35.6 µM)
MIC [3, 4]: > 4 µg/mL

CCCCc1ccc(-c2ccc(C(=O)N[C@@H](CCCN)C(=O)N(C)[C@@H]3C(=O)N[C@@H](C)C(=O)N[C@H](/C=C/C#N)Cc4ccc(OCCN)c(c4)-c4cc3ccc4OCCN)cc2)cc1 [Compound 138]
MIC [1]: 0.5 µg/mL (≈ 0.583 µM)
MIC ([2]; ATCC25922, 22 h): 16 µg/mL (≈ 18.7 µM)
MIC [3, 4]: 4 µg/mL (≈ 4.67 µM)

C=CC(=O)N(C)NC(=O)[C@@H]1Cc2ccc(OCCN)c(c2)-c2cc(ccc2OCCN)[C@H](N(C)C(=O)[C@H](CCN)NC(=O)c2ccc(CCCC)cc2C)C(=O)N[C@@H](C)C(=O)N1 [Compound 144]
MIC [1]: 2 µg/mL (≈ 2.34 µM)
MIC [2, 5]: 64 µg/mL (≈ 74.8 µM)
MIC [3, 6]: > 4 µg/mL

C[C@@H]1NC(=O)[C@@H](N(C)C(=O)[C@H](CCCCN)NC(=O)c2ccc(-c3ccc(Cl)cc3)cc2)c2ccc(O)c(c2)-c2cc(ccc2O)C[C@@H](C(=O)NN(C)C(=O)CCl)NC1=O [Compound 145]
MIC [1]: 4 µg/mL (≈ 4.65 µM)
MIC ([2]; ATCC25922, 22 h): > 64 µg/mL
MIC [3, 4]: 2 µg/mL (≈ 2.32 µM)

CCCCCCc1ccc(C(=O)N[C@@H](CCN)C(=O)N(C)[C@@H]2C(=O)N[C@@H](C)C(=O)N[C@H](C(=O)O)Cc3ccc(O)c(c3)-c3cc2ccc3O)c(C)c1 [Compound 146]
MIC [1]: 0.75 µg/mL (≈ 1.05 µM)
MIC ([2]; ATCC25922, 22 h): > 64 µg/mL
MIC [3, 4]: > 4 µg/mL

CCCCCCCc1ccc(C(=O)N[C@@H](CCN)C(=O)N(C)[C@@H]2C(=O)N[C@@H](C)C(=O)N[C@H](C(=O)N[C@@H](C)C(=O)Oc3ccccc3)Cc3ccc(OCCN)c(c3)-c3cc2ccc3OCCN)c(C)c1 [Compound 148]
MIC [2, 5]: 15.8 µg/mL (≈ 16.5 µM)
MIC [3, 6]: 0.5 µg/mL (≈ 0.519 µM)

CCCCCCCc1ccc(C(=O)N[C@@H](CCN)C(=O)N(C)[C@@H]2C(=O)N[C@@H](C)C(=O)N[C@H](C(=O)N[C@@H](C)C(=O)NOC(N)=O)Cc3ccc(OCCN)c(c3)-c3cc2ccc3OCCN)c(C)c1 [Compound 149]
MIC [2, 5]: 16.1 µg/mL (≈ 17.1 µM)
MIC [3, 6]: 0.25 µg/mL (≈ 0.265 µM)

CCCCCCCc1ccc(C(=O)N[C@@H](CCN)C(=O)N(C)[C@@H]2C(=O)N[C@@H](C3CC3)C(=O)N[C@H](C(=O)N[C@@H](C)C(C)=O)Cc3ccc(OCCN)c(c3)-c3cc2ccc3OCCN)c(C)c1 [Compound 150]
MIC [2, 5]: 4.39 µg/mL (≈ 4.82 µM)
MIC [3, 6]: 0.068 µg/mL (≈ 0.0746 µM)
